In patent US9850283B2, “Macrocyclic inhibitors of the PD-1/PD-L1 and CD80(B7-1)/PD-L1 protein/protein interactions” (BRISTOL-MYERS SQUIBB COMPANY, priority 2013, dated 2017) one finds IC50 data, which are given here for eleven compounds.

One test addresses T1, Human PD-L1/PD-1 (Homo sapiens, UniProt Q9NZQ7).
T1 construct: made in house; host or cells: HEK293T
Kind of test: HTRF PD-1-Ig/PD-L1-His binding assay (human PD-L1). The following applies: cluster symbol; read-out: HTRF IC50 cluster. In short, it runs like this: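 The time-resolved fluorescence signal comes from Eu-cryptate anti-Ig (1 nM) and APC anti-His (20 nM) antibodies bound to a PD-1-Ig/PD-L1-His complex. Both partners lack transmembrane regions.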
A general note: TR-FRET usually uses a lanthanide donor and a delayed reading to cut background.

In test [1] the target is T2, LK35.2-hPD-L1 cells / PE-labeled PD-1-Ig (Homo sapiens, UniProt Q9NZQ7).
T2 construct: expressed in transfected cells; host or cells: LK35.2 mouse B cell line
T2 sequence (Q9NZQ7 19-290): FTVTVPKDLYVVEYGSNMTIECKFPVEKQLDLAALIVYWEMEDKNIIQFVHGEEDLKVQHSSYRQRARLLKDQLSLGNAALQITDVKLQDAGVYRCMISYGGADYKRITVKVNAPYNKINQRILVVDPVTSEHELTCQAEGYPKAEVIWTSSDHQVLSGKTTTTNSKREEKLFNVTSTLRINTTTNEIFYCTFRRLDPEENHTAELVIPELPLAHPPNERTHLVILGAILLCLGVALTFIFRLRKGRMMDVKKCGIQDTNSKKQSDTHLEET
Description: LK35.2-hPD-L1 cell binding high-content screening assay. It counts as cell-based. The following applies: cluster symbol, read-out: CBA IC50 cluster. An outline of the steps:
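Fluorescent PD-1-Ig binding to PD-L1-expressing LK35.2 cells, imaged after washing. Conditions: 1 nM PE-PD-1-Ig, 37 °C, 1 h, RPMI with 10% fetal calf serum.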

Where [2] appears, read: cell binding assay, cell line not given.
The mark [3] stands for this setting: cell line of CBA not given (LK35.2-hPD-L1 or 293T-hPD-L1).

pIC50: −log10 of the molar value. Read-outs that look alike come from different tables or passages of the source. Positions of bridges follow the written chain, without caps; N, C: chain ends. Non-standard residues stand in square brackets, D forms with d. Residues, ends and D or L forms follow the SMILES beside them. ξ: configuration not given here. Phe(3,4,5-F3) = N[C@@H](Cc1cc(F)c(F)c(F)c1)C(=O)O; Trp(5-Cl) = N[C@@H](Cc1c[nH]c2ccc(Cl)cc12)C(=O)O; Phe(4-F) = N[C@@H](Cc1ccc(F)cc1)C(=O)O; Bta = N[C@@H](Cc1csc2ccccc12)C(=O)O; Hyp = O=C(O)[C@@H]1C[C@@H](O)CN1; NMeF = CN[C@@H](Cc1ccccc1)C(=O)O; NMeNle = CCCC[C@H](NC)C(=O)O; NMeM = CN[C@@H](CCSC)C(=O)O; NMeS = CN[C@@H](CO)C(=O)O; NMeA = CN[C@@H](C)C(=O)O; Orn = NCCC[C@H](N)C(=O)O; Dap = NC[C@H](N)C(=O)O; ξC = NC(CS)C(=O)O; Sar = CNCC(=O)O Bounds are passed on as bounds.

T1 sequence (Q9NZQ7 with tags, fused parts or gaps): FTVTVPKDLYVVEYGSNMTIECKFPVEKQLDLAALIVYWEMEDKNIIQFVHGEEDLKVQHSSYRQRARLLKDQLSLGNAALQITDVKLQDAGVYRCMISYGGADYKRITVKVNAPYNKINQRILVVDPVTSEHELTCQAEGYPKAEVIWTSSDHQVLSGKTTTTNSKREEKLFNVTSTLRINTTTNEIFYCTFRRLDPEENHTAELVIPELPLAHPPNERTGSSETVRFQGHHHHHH

Regarding `CCCC[C@H]1C(=O)N[C@@H](C)C(=O)NC(C(=O)NCC(N)=O)CSCC(=O)N[C@@H](Cc2ccc(O)cc2)C(=O)N(C)[C@@H](C)C(=O)N[C@@H](CC(N)=O)C(=O)N2CCC[C@H]2C(=O)N[C@@H](CN)C(=O)N[C@@H](CC(C)C)C(=O)N2CCC[C@H]2C(=O)N[C@@H](Cc2c[nH]c3ccccc23)C(=O)N[C@@H](CO)C(=O)N[C@@H](Cc2csc3ccccc23)C(=O)N(C)[C@@H](CCSC)C(=O)N1C` (stereo partly shown) [Example 9094] ({CH2CO}-Y[NMeA]NP[Dap]LPWS[Bta][NMeM][NMeNle]A[ξC]G-NH2; thioether N-14), the figures for the negative logarithm of the IC50 (pIC50) (on Human PD-L1/PD-1; in test [1] (setting [2])) were 8.17 to 9.41 and 7.14 to 8.32, respectively.
As to `CCCC[C@H]1C(=O)N(C)[C@@H](C)C(=O)N[C@@H](CCCNC(=N)N)C(=O)NC(C(=O)NCC(N)=O)CSCC(=O)N[C@@H](Cc2ccc(O)cc2)C(=O)N(C)[C@@H](C)C(=O)N[C@@H](CC(N)=O)C(=O)N2CCC[C@H]2C(=O)N[C@@H](Cc2cnc[nH]2)C(=O)N[C@@H](CC(C)C)C(=O)N2C[C@H](O)C[C@H]2C(=O)N[C@@H](Cc2c[nH]c3ccccc23)C(=O)N[C@@H](CO)C(=O)N[C@@H](Cc2c[nH]c3ccccc23)C(=O)N1C` (stereo partly shown) [Example 9055], the pIC50 (as a rule, the negative decadic logarithm of the IC50, by convention in mol/L) was 8.17 to 9.41 at Human PD-L1/PD-1 and 8.33 to 9.80 in test [1] (setting [2]).
As for `CCCC[C@H]1C(=O)N(C)[C@@H](CCCC)C(=O)N[C@@H](C)C(=O)N[C@H](C(=O)NCC(N)=O)CSCC(=O)N[C@@H](Cc2ccc(O)cc2)C(=O)N(C)[C@@H](C)C(=O)N[C@@H](CC(=O)O)C(=O)N2CCC[C@H]2C(=O)N[C@@H](CN)C(=O)N[C@@H](CC(C)C)C(=O)N2C[C@H](O)C[C@H]2C(=O)N[C@@H](Cc2c[nH]c3ccccc23)C(=O)N[C@@H](CO)C(=O)N[C@@H](Cc2c[nH]c3ccccc23)C(=O)N1C` [Example 1138] ({CH2CO}-Y[NMeA]DP[Dap]L[Hyp]WSW[NMeNle][NMeNle]ACG-NH2; thioether N-14), the values for the pIC50 (at Human PD-L1/PD-1; in test [1] (setting [3])) were 7.52 to 8.17 and 8.33 to 9.80, respectively.
Take `CCCC[C@H]1C(=O)N(C)[C@@H](CCCC)C(=O)N[C@@H](CCCNC(=N)N)C(=O)NC(C(=O)NCC(N)=O)CSCC(=O)N[C@@H](Cc2ccc(O)cc2)C(=O)N(C)[C@@H](CO)C(=O)N[C@@H](CC(N)=O)C(=O)N2CCC[C@H]2C(=O)N[C@@H](Cc2cnc[nH]2)C(=O)N[C@@H](CC(C)C)C(=O)N2CCC[C@H]2C(=O)N[C@@H](Cc2c[nH]c3ccccc23)C(=O)N[C@@H](CO)C(=O)N[C@@H](Cc2csc3ccccc23)C(=O)N1C` (stereo partly shown) [Example 9035] ({CH2CO}-Y[NMeS]NPHLPWS[Bta][NMeNle][NMeNle]R[ξC]G-NH2; thioether N-14): the pIC50 at Human PD-L1/PD-1 was 7.52 to 8.17; in test [1] (setting [2]), 7.14 to 8.32.
In the case of `CCCC[C@H]1C(=O)N(C)[C@@H](CCSC)C(=O)N[C@@H](CCCNC(=N)N)C(=O)NC(C(=O)NCC(N)=O)CSCC(=O)N[C@@H](Cc2ccc(O)cc2)C(=O)N(C)[C@@H](C)C(=O)N[C@@H](CC(N)=O)C(=O)N2CCC[C@H]2C(=O)N[C@@H](CN)C(=O)N[C@@H](CC(C)C)C(=O)N2CCC[C@H]2C(=O)N[C@@H](Cc2c[nH]c3ccccc23)C(=O)N[C@@H](CO)C(=O)N[C@@H](Cc2c[nH]c3ccccc23)C(=O)N1C` (stereo partly shown) [Example 9081] ({CH2CO}-Y[NMeA]NP[Dap]LPWSW[NMeNle][NMeM]R[ξC]G-NH2; thioether N-14), the negative logarithm of the IC50 (pIC50) was 8.17 to 9.41 on Human PD-L1/PD-1 and 8.33 to 9.80 in test [1] (setting [2]).
Regarding `CCCC[C@H]1C(=O)N(C)[C@@H](CCCC)C(=O)N[C@@H](CCCNC(=N)N)C(=O)N[C@H](C(=O)NCC(N)=O)CSCC(=O)N[C@@H](Cc2ccccc2)C(=O)N(C)[C@@H](C)C(=O)N[C@@H](CC(N)=O)C(=O)N2CCC[C@H]2C(=O)N[C@@H](Cc2cnc[nH]2)C(=O)N[C@@H](CC(C)C)C(=O)N(C)CC(=O)N[C@@H](Cc2c[nH]c3ccc(Cl)cc23)C(=O)N[C@@H](CO)C(=O)N[C@@H](Cc2c[nH]c3ccccc23)C(=O)N1C` [Example 1026] ({CH2CO}-F[NMeA]NPHL[Sar][Trp(5-Cl)]SW[NMeNle][NMeNle]RCG-NH2; thioether N-14), the values for the pIC50 (on Human PD-L1/PD-1; in test [1] (setting [3])) were under 7.52 and under 7.13, respectively.
For the compound `CCCC[C@H]1C(=O)N(C)CC(=O)N[C@@H](CC(N)=O)C(=O)N[C@@H](C(C)C)C(=O)N(C)[C@@H](Cc2ccccc2)C(=O)N[C@@H](Cc2ccc(O)cc2)C(=O)N(C)CC(=O)N[C@@H](Cc2c[nH]c3ccccc23)C(=O)N[C@@H](Cc2ccc(O)cc2)C(=O)N[C@@H](CCCN)C(=O)N[C@H](C(=O)NCC(N)=O)CSCC(=O)N[C@@H](Cc2cc(F)c(F)c(F)c2)C(=O)N(C)[C@@H](Cc2ccccc2)C(=O)N1C` [Example 3181] ({CH2CO}-[Phe(3,4,5-F3)][NMeF][NMeNle][Sar]NV[NMeF]Y[Sar]WY[Orn]CG-NH2; thioether N-13), the pIC50 on Human PD-L1/PD-1 is 8.17 to 9.41; in test [1] (setting [3]) it was 8.33 to 9.80.
Consider `CCCC[C@H]1C(=O)N[C@@H](CCCNC(=N)N)C(=O)NC(C(=O)NCC(N)=O)CSCC(=O)N[C@@H](Cc2ccc(O)cc2)C(=O)N(C)[C@@H](C)C(=O)N[C@@H](CC(N)=O)C(=O)N2CCC[C@H]2C(=O)N[C@@H](Cc2cnc[nH]2)C(=O)N[C@@H](CO)C(=O)N2CCC[C@H]2C(=O)N[C@@H](Cc2c[nH]c3ccccc23)C(=O)N[C@@H](CO)C(=O)N[C@@H](Cc2csc3ccccc23)C(=O)N(C)[C@@H](CCSC)C(=O)N1C` (stereo partly shown) [Example 9112] ({CH2CO}-Y[NMeA]NPHSPWS[Bta][NMeM][NMeNle]R[ξC]G-NH2; thioether N-14), for which the pIC50 on Human PD-L1/PD-1 is 8.17 to 9.41; in test [1] (setting [2]) it was 7.14 to 8.32.
Consider `CCCC[C@H]1C(=O)N[C@@H](CCCNC(=N)N)C(=O)NC(C(=O)NCC(N)=O)CSCC(=O)N[C@@H](Cc2ccc(O)cc2)C(=O)N(C)[C@@H](C)C(=O)N[C@@H](CC(N)=O)C(=O)N2CCC[C@H]2C(=O)N[C@@H](Cc2cnc[nH]2)C(=O)N[C@@H](CC(C)C)C(=O)N2C[C@H](O)C[C@H]2C(=O)N[C@@H](Cc2c[nH]c3ccccc23)C(=O)N[C@@H](CO)C(=O)N[C@@H](Cc2csc3ccccc23)C(=O)N(C)[C@@H](COCC)C(=O)N1C` (stereo partly shown) [Example 9045] ({CH2CO}-Y[NMeA]NPHL[Hyp]WS[Bta][NMeS](Et)[NMeNle]R[ξC]G-NH2; thioether N-14), for which the pIC50 at Human PD-L1/PD-1 was 8.17 to 9.41; in test [1] (setting [2]) it was 8.33 to 9.80.
In the case of `CCCC[C@H]1C(=O)N(C)CC(=O)N[C@@H](CC(=O)O)C(=O)N[C@@H](C(C)C)C(=O)N(C)[C@@H](Cc2ccccc2)C(=O)N[C@@H](Cc2ccc(O)cc2)C(=O)N(C)CC(=O)N[C@@H](Cc2csc3ccccc23)C(=O)N[C@@H](Cc2ccc(O)cc2)C(=O)N[C@@H](CC(C)C)C(=O)N[C@H](C(=O)NCC(N)=O)CSCC(=O)N[C@@H](Cc2ccc(F)cc2)C(=O)N(C)[C@@H](Cc2ccccc2)C(=O)N1C` [Example 3116] ({CH2CO}-[Phe(4-F)][NMeF][NMeNle][Sar]DV[NMeF]Y[Sar][Bta]YLCG-NH2; thioether N-13), the negative-log IC50 (pIC50) at Human PD-L1/PD-1 is 8.17 to 9.41; in test [1] (setting [3]), 8.33 to 9.80.
As for `CCCC[C@H]1C(=O)N2CCC[C@@H]2C(=O)N[C@@H](CC(=O)O)C(=O)N[C@@H](C(C)C)C(=O)N(C)[C@@H](Cc2ccccc2)C(=O)N[C@@H](CCCN)C(=O)N2CCC[C@@H]2C(=O)N[C@@H](Cc2c[nH]c3ccccc23)C(=O)N[C@@H](Cc2ccc(O)cc2)C(=O)N[C@@H](CC(C)C)C(=O)N[C@H](C(=O)NCC(N)=O)CSCC(=O)N[C@@H](Cc2ccccc2)C(=O)N(C)[C@@H](Cc2ccccc2)C(=O)N1C` [Example 3188] (HELM PEPTIDE1{[O=C(C[*:3])[*:2]].F.[meF].[CCCC[C@@H](C(=O)[*:2])N(C)[*:1]].[dP].D.V.[meF].[Orn].[dP].W.Y.L.C.G.[am]}$PEPTIDE1,PEPTIDE1,1:R3-14:R3$$$V2.0), the results for the pIC50 (on Human PD-L1/PD-1; in test [1] (setting [3])) were 7.52 to 8.17 and 8.33 to 9.80, respectively.
